Data as given in ChEMBL document CHEMBL4184137, “Lysine Deacetylase Inhibitors in Parasites: Past, Present, and Future Perspectives” (J Med Chem, 2017).

Legend:
[1] = molecular target: T1, Putative silent information regulator 2 (Leishmania infantum, UniProt A0A6L0XH39); assay: Inhibition of N-terminal His6-tagged recombinant Leishmania infantum SIR2RP1 expressed in Escherichia coli in presence of NAD+ by fluorimetric method
T1 sequence (A0A6L0XH39 whole entry): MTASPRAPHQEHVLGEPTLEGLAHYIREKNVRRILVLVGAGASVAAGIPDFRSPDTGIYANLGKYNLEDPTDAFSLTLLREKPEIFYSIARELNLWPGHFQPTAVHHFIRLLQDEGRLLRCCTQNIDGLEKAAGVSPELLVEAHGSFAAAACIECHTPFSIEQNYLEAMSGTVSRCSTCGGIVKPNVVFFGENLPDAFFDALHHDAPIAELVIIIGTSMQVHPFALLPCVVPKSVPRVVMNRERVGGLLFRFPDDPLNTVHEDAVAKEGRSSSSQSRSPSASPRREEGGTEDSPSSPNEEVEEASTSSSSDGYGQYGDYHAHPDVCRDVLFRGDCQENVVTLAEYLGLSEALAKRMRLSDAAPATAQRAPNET

Leishmania infantum [2] = assay: Antileishmanial activity against amastigote stage of Leishmania infantum infected in PMA-differentiated human THP-1 cells after 3 days by luciferase assay; format: functional, organism-based; settings: THP-1, 72 h
Plasmodium falciparum [3] = assay: Antimalarial activity against Plasmodium falciparum infected in human erythrocytes preincubated for 48 hrs followed by [3H]-hypoxanthine addition measured after 24 hrs by scintillation counting assay; format: functional, organism-based
Plasmodium falciparum [4] = assay: Antimalarial activity against Plasmodium falciparum; format: functional, organism-based
Toxoplasma gondii = assay: Antiparasitic activity against tachyzoite stage of Toxoplasma gondii; format: functional, organism-based
Plasmodium falciparum [5] = assay: Antiplasmodial activity against Plasmodium falciparum 3D7 assessed as growth inhibition after 24 hrs by measuring incorporation of [3H]-hypoxanthine by liquid scintillation counting method; format: functional, organism-based
[6] = Inhibition of Plasmodium falciparum Sir2A
[7] = Selectivity index, ratio of IC50 for African green monkey Vero cells to IC50 for Plasmodium falciparum D6; format: toxicity; settings: read-out: Ratio IC50
[8] = Selectivity index, ratio of IC50 for African green monkey Vero cells to IC50 for Plasmodium falciparum W2; format: toxicity; settings: read-out: Ratio IC50
Histone deacetylase = molecular target: T2, Histone deacetylase (Plasmodium falciparum, UniProt Q9XYC7); assay: Inhibition of recombinant Plasmodium falciparum HDAC1 using HDAC substrate-3 after 30 mins by fluorescence assay
T2 sequence (Q9XYC7 whole entry): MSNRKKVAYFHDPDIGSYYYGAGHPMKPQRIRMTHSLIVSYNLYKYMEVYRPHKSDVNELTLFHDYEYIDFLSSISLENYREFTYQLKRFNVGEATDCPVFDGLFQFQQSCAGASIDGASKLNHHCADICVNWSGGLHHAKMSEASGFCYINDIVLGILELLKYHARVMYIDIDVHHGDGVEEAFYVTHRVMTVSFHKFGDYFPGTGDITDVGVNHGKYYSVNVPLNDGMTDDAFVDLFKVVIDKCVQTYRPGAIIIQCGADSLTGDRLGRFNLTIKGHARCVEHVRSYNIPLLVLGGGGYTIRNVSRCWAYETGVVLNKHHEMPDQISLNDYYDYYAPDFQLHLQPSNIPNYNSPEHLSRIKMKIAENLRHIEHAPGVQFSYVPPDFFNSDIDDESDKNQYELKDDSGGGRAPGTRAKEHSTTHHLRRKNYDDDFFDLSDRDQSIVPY

Plasmodium falciparum [9] = assay: Antimalarial activity against Plasmodium falciparum using Malstat reagent by parasite lactate dehydrogenase assay; format: functional, organism-based
[10] = test system: Trypanosoma brucei brucei; assay: Antitrypanosomal activity against Trypanosoma brucei brucei measured after 22 hrs by fluorescence-based Alamar blue viability assay; format: functional, organism-based
[11] = molecular target: T3, Histone deacetylase (Plasmodium falciparum) (UniProt Q9XYC7); assay: Inhibition of recombinant HDAC1 in recombinant Plasmodium falciparum at 1 uM using Ac-RGK(Ac)-AMC fluorogenic peptide as substrate preincubated for 1 hr followed by substrate addition measured after 10 min by fluorescence assay
T3 sequence (whole entry): T2 sequence (Q9XYC7 whole entry)

NFF = assay: Cytotoxicity against human NFF cells after 72 hrs by SRB assay; format: cell-based
HEK293 = assay: Cytotoxicity against HEK293 cells after 48 hrs by resazurin assay; format: cell-based; settings: Homo sapiens, HEK293, 48 h
Trypanosoma brucei [12] = assay: Inhibition of recombinant Trypanosoma brucei HDAC1 at 5 uM after 30 mins
Trypanosoma brucei [13] = assay: Inhibition of recombinant Trypanosoma brucei HDAC3 at 5 uM after 30 mins
Leishmania infantum [14] = assay: Antileishmanial activity against amastigote stage of Leishmania infantum MHOM/MA671TMAP263 expressing luciferase after 72 hrs by luciferase assay; format: functional, organism-based; settings: MHOM/MA671TMAP263, 72 h
Trypanosoma cruzi = assay: Antitrypanosomal activity against epimastigotes of Trypanosoma cruzi […] by Alamar Blue assay; format: functional, organism-based
Plasmodium falciparum [15] = assay: Antimalarial activity against Plasmodium falciparum infected in type O-positive erythrocytes by [3H]-hypoxanthine incorporation assay; format: functional, organism-based
Plasmodium falciparum [16] = assay: Gametocytocidal activity against transgenic GFP-fused Plasmodium falciparum NF54 […] gametocytes after 24 hrs by MitoTracker Red CM-H2XRos late-stage gametocyte imaging-based viability assay; format: functional, organism-based; settings: NF54, 24 h
[17] = Selectivity index, ratio of IC50 for human NFF cells to IC50 for Plasmodium falciparum; format: toxicity; settings: read-out: Ratio IC50
[18] = Selectivity index, ratio of IC50 for human NFF cells to IC50 for transgenic GFP-fused Plasmodium falciparum NF54 […] gametocyte; format: toxicity; settings: read-out: Ratio IC50
Schistosoma mansoni [19] = assay: Antiparasitic activity against Schistosoma mansoni assessed cell viability at 20 uM after 5 days; format: functional
Schistosoma mansoni [20] = assay: Antiparasitic activity against Schistosoma mansoni assessed as pairing at 20 uM after 6 days relative to control; format: functional
Schistosoma mansoni [21] = assay: Antiparasitic activity against Schistosoma mansoni assessed as cumulative egg reduction at 20 uM; format: functional; design: scale not given: the % may be the effect or the level left

O=C1c2cccc3cccc(c23)C(=O)N1CCNCCCCNCCN1C(=O)c2cccc3cccc(c23)C1=O
IC50 [1]: 5.7 to 54.7 µM
IC50 (Leishmania infantum [2]): 1 to 10 µM

O=C1c2cccc3cccc(c23)C(=O)N1CCNCCCCCCNCCN1C(=O)c2cccc3cccc(c23)C1=O
IC50 [1]: 5.7 to 54.7 µM
IC50 (Leishmania infantum [2]): 1 to 10 µM

O=C(/C=C/c1ccc(C(=O)NO)cc1)NO
IC50 (Plasmodium falciparum [3]): 0.9 to 1.1 µM

Oc1ccc(/C=C/c2cc(O)cc(O)c2)cc1 [RESVERATROL]
IC50 (Plasmodium falciparum [4]): 60 µM

Cc1ccc(C(=O)Nc2ccc(S(=O)(=O)O)c3cc(S(=O)(=O)O)cc(S(=O)(=O)O)c23)cc1NC(=O)c1cccc(NC(=O)Nc2cccc(C(=O)Nc3cc(C(=O)Nc4ccc(S(=O)(=O)O)c5cc(S(=O)(=O)O)cc(S(=O)(=O)O)c45)ccc3C)c2)c1 [SURAMIN]
IC50 [1]: 7 µM

O=C(CCCCCN1C(=O)c2cccc3cccc(c23)C1=O)NO
IC50 (Toxoplasma gondii): 0.039 µM

O=C1CCc2c(ccc3ccccc23)O1 [SPLITOMICIN]
IC50 (Plasmodium falciparum [5]): > 10 µM
IC50 [6]: > 400 µM

CCCC(CCC)C(=O)O [VALPROIC ACID]
IC50 (Plasmodium falciparum [4]): > 100 µM

O=C1c2cccc3cccc(c23)C(=O)N1CCNCCCNCCCNCCN1C(=O)c2cccc3cccc(c23)C1=O
IC50 [1]: 5.7 to 54.7 µM
IC50 (Leishmania infantum [2]): 1 to 10 µM

CC[C@H]1OC(=O)[C@H](C)[C@@H](O[C@H]2C[C@@](C)(OC)[C@@H](O)[C@H](C)O2)[C@H](C)[C@@H](O[C@@H]2O[C@H](C)C[C@H](N(C)Cc3ccc(-c4cn(CCCCCCC(=O)NO)nn4)cc3)[C@H]2O)[C@](C)(O)C[C@@H](C)CN(C)[C@H](C)[C@@H](O)[C@]1(C)O
selectivity ratio [7]: > 20.7
selectivity ratio [8]: > 47.6
IC50 (Histone deacetylase): 0.029 µM
IC50 (Plasmodium falciparum [9]): 0.094 to 0.226 µM

O=C(/C=C/c1cccc(S(=O)(=O)Nc2ccccc2)c1)NO [BELINOSTAT]
IC50 [10]: 2.6 µM
inhibition [11]: 78.5%
IC50 (Plasmodium falciparum [3]): 0.06 to 0.13 µM
IC50 (NFF): 1.4 to 2.4 µM
IC50 (HEK293): 1.4 to 2.4 µM

CC(/C=C/C(=O)NO)=C\[C@@H](C)C(=O)c1ccc(N(C)C)cc1 [TRICHOSTATIN]
inhibition (Trypanosoma brucei [12]): > 50%
IC50 [10]: 7 µM
IC50 (Toxoplasma gondii): 0.041 µM
inhibition (Trypanosoma brucei [13]): > 50%

O=C1c2cccc3cccc(c23)C(=O)N1CCNCCCCCCCCCNCCN1C(=O)c2cccc3cccc(c23)C1=O
IC50 [1]: 5.7 to 54.7 µM
IC50 (Leishmania infantum [2]): 1 to 10 µM

O=C1c2cccc3cccc(c23)C(=O)N1CCNCCNCCNCCN1C(=O)c2cccc3cccc(c23)C1=O
IC50 [1]: 5.7 to 54.7 µM
IC50 (Leishmania infantum [2]): 1 to 10 µM

O=C1c2cccc3cccc(c23)C(=O)N1CCNCCCCNCCCNCCN1C(=O)c2cccc3cccc(c23)C1=O
IC50 [1]: 5.7 to 54.7 µM
IC50 (Leishmania infantum [2]): 1 to 10 µM

O=C1c2cccc3cccc(c23)C(=O)N1CCNCCCNCCCCNCCCNCCN1C(=O)c2cccc3cccc(c23)C1=O
IC50 [1]: 5.7 to 54.7 µM
IC50 (Leishmania infantum [2]): 1 to 10 µM

O=C1c2cccc3cccc(c23)C(=O)N1CCNCCCCCCCCCCCCNCCN1C(=O)c2cccc3cccc(c23)C1=O
IC50 [1]: 5.7 to 54.7 µM
IC50 (Leishmania infantum [2]): 1 to 10 µM

O=C1c2cccc3cccc(c23)C(=O)N1CCNCCCCCCCCNCCN1C(=O)c2cccc3cccc(c23)C1=O
IC50 [1]: 5.7 to 54.7 µM
IC50 (Leishmania infantum [2]): 1 to 10 µM

NC(=O)c1cccnc1 [NIACINAMIDE]
IC50 [1]: 40 µM
IC50 (Plasmodium falciparum [5]): 9900 µM
IC50 (Leishmania infantum [14]): 5500 to 13900 µM
IC50 [6]: 51 µM
EC50 (Trypanosoma cruzi): 25800 µM

O=C1c2cccc3cccc(c23)C(=O)N1CCNCCCCCCCCCCNCCN1C(=O)c2cccc3cccc(c23)C1=O
IC50 [1]: 5.7 to 54.7 µM
IC50 (Leishmania infantum [2]): 1 to 10 µM

O=C(CCCCCONC(=O)Nc1cccc2ccccc12)NO
IC50 (Plasmodium falciparum [15]): 0.25 to 0.32 µM
IC50 (NFF): 19.5 µM
IC50 (Plasmodium falciparum [16]): 2.12 to 2.25 µM
selectivity ratio [17]: 36 to 78
selectivity ratio [18]: 9

O=C1c2cccc3cccc(c23)C(=O)N1CCNCCCCCCCNCCN1C(=O)c2cccc3cccc(c23)C1=O
IC50 [1]: 5.7 to 54.7 µM
IC50 (Leishmania infantum [2]): 1 to 10 µM

O=C1NC(=S)NC(=O)C1=Cc1cc2ccccc2[nH]1
Activity (Schistosoma mansoni [19]): 100%
Activity (Schistosoma mansoni [20]): 100%
Activity (Schistosoma mansoni [21]): 65%

O=C1c2cccc3cccc(c23)C(=O)N1CCNCCCCCNCCN1C(=O)c2cccc3cccc(c23)C1=O
IC50 [1]: 5.7 to 54.7 µM
IC50 (Leishmania infantum [2]): 1 to 10 µM

O=C(CCCCCCC(=O)NO)NO [SUBEROHYDROXAMIC ACID]
IC50 (Plasmodium falciparum [3]): 0.8 to 2.3 µM
IC50 (Toxoplasma gondii): 0.213 µM

Cc1[nH]c2ccccc2c1CCNCc1ccc(/C=C/C(=O)NO)cc1 [PANOBINOSTAT]
IC50 [10]: 1.69 µM
inhibition [11]: 100%
IC50 (Plasmodium falciparum [3]): 0.01 to 0.03 µM
IC50 (NFF): 0.07 to 0.18 µM
IC50 (HEK293): 0.07 to 0.18 µM
